Experimental data published in US6875608B1, “Propagation and/or derivation of embryonic stem cells” (University of Edinburgh, priority 1998, dated 2005).

T1: GRgp(Y118F) chimeric receptor (UniProt Q00560+Q99062, Y757F)
T1 construct: fusing the extracellular domain of the human G-CSFR to an EcoRI fragment of mouse gp130; an EcoRI fragment of mouse gp130 containing the transmembrane domain and the entire cytoplasmic region; expressed in transfected cells
T1 sequence (Q99062+Q00560 with tags, fused parts or gaps Q00560:Y757F): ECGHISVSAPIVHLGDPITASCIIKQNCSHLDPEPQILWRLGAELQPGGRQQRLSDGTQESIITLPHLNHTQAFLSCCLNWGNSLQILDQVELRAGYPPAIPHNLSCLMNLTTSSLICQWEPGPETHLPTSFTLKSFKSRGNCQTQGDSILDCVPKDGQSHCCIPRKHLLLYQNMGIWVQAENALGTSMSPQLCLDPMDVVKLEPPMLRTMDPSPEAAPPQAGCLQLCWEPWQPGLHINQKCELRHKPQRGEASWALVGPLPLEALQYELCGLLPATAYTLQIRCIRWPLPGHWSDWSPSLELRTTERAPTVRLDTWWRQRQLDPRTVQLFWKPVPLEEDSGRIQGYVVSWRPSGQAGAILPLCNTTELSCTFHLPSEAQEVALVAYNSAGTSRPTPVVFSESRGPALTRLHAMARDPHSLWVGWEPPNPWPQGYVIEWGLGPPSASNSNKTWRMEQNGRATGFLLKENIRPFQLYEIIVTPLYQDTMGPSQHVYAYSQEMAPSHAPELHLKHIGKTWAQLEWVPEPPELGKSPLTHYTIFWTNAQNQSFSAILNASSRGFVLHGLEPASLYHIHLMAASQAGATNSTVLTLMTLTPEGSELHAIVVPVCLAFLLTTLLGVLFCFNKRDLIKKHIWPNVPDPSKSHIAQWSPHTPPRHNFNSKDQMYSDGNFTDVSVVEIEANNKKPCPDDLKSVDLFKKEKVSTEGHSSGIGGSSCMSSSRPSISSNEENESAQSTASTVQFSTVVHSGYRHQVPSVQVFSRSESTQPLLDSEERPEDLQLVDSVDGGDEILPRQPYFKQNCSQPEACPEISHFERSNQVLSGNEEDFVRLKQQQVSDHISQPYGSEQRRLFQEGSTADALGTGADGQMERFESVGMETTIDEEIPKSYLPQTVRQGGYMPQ

B1: G-CSF: cytokine ligand used to stimulate chimaeric G-CSFR/gp130 receptors in ES cell transfectants (protein, UniProt P09919 31-207, looked up)
Granulocyte …: TPLGPASSLPQSFLLKCLEQVRKIQGDGAALQEKLVSECATYKLCHPEELVLLGHSLGIPWAPLSSCPSQALQLAGCLSQLHSGLFLYQGLLQALEGISPELGPTLDTLQLDVADFATTIWQQMEELGMAPALQPTQGAMPAFASAFQRRAGGVLVASHLQSFLEVSYRVLRHLAQP

Key:
ERK1 and ERK2 = test: PD098059 dependent inhibition of ERK activation (immunoblot with phosphospecific anti-ERK antibodies); assay type: cell-based, mouse; conditions: GRgp(278) cells, 48 hours inhibitor plus LIF, then G-CSF 30 ng/ml 10 minutes
Procedure: For analysis of STAT3 and ERK phosphorylation, 1×10^6 ES cells were plated per well of 6-well dishes. Cells were serum starved and treated with cytokines as described above and then lysed in 100 μl SDS sample buffer. Ten microlitre aliquots were fractionated on a 10% SDS polyacrylamide gel, electroblotted onto nitrocellulose and probed with anti-ERK and anti-STAT3 antibodies according to the directions provided by supplier (New England Biolabs).
The continued proliferation of undifferentiated ES cells at inhibitory concentrations of PD098059 confirms that gp130-dependent activation of ERK1 and ERK2 is not required for the propagation of ES cells.

ZIN40 ES cells = test: Chimaera analysis of ES cell pluripotency; assay type: in vivo; conditions: 48 hours LIF plus 25 μM PD098059, 24 hours LIF only, injected into mouse blastocysts, day 9.5
Procedure: ZIN40 ES cells were treated wit 25 μM PD098059 plus 5 U/ml LIF for 48 hours, re-fed with medium containing LIF for a further 24 hours and than microinjected into C57BL/6 blastcysts. Embryos were collected at day 9.5 of pregnancy and stained for β-galactosidase activity.
ZIN40 ES cells were injected into C57BL/6 blastocysts and transferred into pseudopregnant mice. Mice were sacrificed at day 9.5 of pregnancy and the embryos were stained with X-gal.
We therefore determined whether ES cells propagated in the absence of gp130-dependent ERK. signaling have the capacity to incorporate into the developing embryo and differentiate appropriately. Cells were cultured at low density (1000 cell/cm^2) for 48 hours in the presence of LIF plus 25 μM PD098059, or in the absence of LIF. They were then re-fed with medium containing LIF but lacking the inhibitor for a further 24 hours before microinjection into mouse blastocysts. ZIN40 cells were used in this experiment, since they carry a nuclear localised β-galactosidase marker that is widely expressed in differentiated cell types. […] However, cells cultured in the absence of LIF for 48 hours were incapable of colonizing the embryo.

IOUD2 ES cells = test: Aggregate (embryoid body) culture, staining for Oct4 β-galactosidase; assay type: cell-based, mouse
Description: Aggregation induces ES cells to differentiate and form structures known as embryoid bodies that contain multiple differentiated cell types. Undifferentiated cells are largely or wholly eliminated during embryoid formation due to induced differentiation and/or apoptosis.
IOUD2 ES cells, which carry a targeted integration of βgeo into the Oct4 locus were used to enable visualisation of undifferentiated cells by histochemical staining for β-galactosidase. Aggregates were formed in hanging drops by seeding 100 cells/20 μl drop in the presence of 0, 25, 50, 75 or 100 μm PD089059. Aggregates were maintained for 6 days, then transferred to gelatin-coated dishes and allowed to attach overnight. Cultures were then fixed and stained for β-galactosidase activity. In the absence of the Mek inhibitor, the embryoid bodies were well differentiated and very few Oct4 β-galactosidase expressing cells were present in the outgrowths. […] At PD089059 concentrations of 75-100 μm, the great majority of cells were undifferentiated.

[1] = molecular target: T2, GRgp(278) chimeric receptor (UniProt Q00560+Q99062); test: Self-renewal response of GRgp130 transfectants to G-CSF; assay type: cell-based; conditions: GRgp(278) transfectants, 6 days, 300 fg-30 ng/ml G-CSF
T2 construct: fusing the extracellular domain of the human G-CSFR to an EcoRI fragment of mouse gp130; an EcoRI fragment of mouse gp130 containing the transmembrane domain and the entire cytoplasmic region; expressed in transfected cells
Procedure: (§1) Photomicrographs were taken of X-gal stained, representive colonies formed by GRgp(278) and GRgp(Y118F) transfectants after 6 days culture with 300 fg, 30 pg and 30 ng/ml of G-CSF. Photomicrographs were also taken of representative colonies formed by GRgp(278) and GRgp(Y118F) transfectants after 6 days culture with no cytokine, IL-6 (100 ng/ml+sIL-6R), G-CSF(30 ng/ml) or, IL-6(100 ng/ml+sIL-6R) and G-CSF(30 ng/ml).
(§2) All assays were performed in triplicate.

[2] = molecular target: T1, GRgp(Y118F) chimeric receptor; test: as above; assay type: cell-based; conditions: GRgp(Y118F) ES cells, 6 days, 300 fg-30 ng/ml G-CSF
Procedure: as §1, §2

T2 sequence (Q00560 640-917 limits assumed, change not shown, one chain of several): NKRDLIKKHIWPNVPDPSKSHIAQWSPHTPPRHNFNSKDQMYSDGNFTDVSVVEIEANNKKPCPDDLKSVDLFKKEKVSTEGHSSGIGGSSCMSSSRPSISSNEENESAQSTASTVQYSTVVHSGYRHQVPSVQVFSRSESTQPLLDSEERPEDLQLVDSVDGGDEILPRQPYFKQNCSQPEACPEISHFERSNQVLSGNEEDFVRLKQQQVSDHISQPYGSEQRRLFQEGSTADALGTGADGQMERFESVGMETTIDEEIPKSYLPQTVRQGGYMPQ
Procedure for D027 ES cells: Data were collected as means±s.e.m for duplicate determinations of triplicate samples normalized relative to the response to LIF. […] Data was collected as means±s.e.m for duplicate determinations of triplicate samples normalized relative to the maximum response of cells to treatment with LIF(111 U/ml) plus vehicle.
Expression of β-galactosidase from the Oct-4 locus in D027 cells was quantitated in an ONPG assay. Cells were plated at 5000 per well in a 24-well dishes and cultured for 6 days in the presence or absence of cytokine. When cells were treated with PD098059, they were plated at 2500 per well and cultured overnight in normal growth medium prior to addition of the inhibitor. On day 6, cells were washed once with PBS and lysed in 0.4 ml of 0.25 M Tris pH 7.5, 0.5 mM DTT, 0.5 % NP40. Lysate (40 μl) was mixed with 100 μl of ONPG buffer (60 mM Na2HPO4, 40 mM NaH2PO4, 10 mM KCl, 1 mM MgCl2, 50 mM 2-mercaptoethanol, 1.2 mM ONPG) in a microtitre plate, incubated at 37° C. for 2-4 hours and the absorbance was read at 420 nm. All assays were performed in triplicate.
D027 cells have a LacZ gene inserted within the stem cell specific gene, Oct-4. As a consequence, expression of this integrated reporter gene is restricted to undifferentiated ES cells and the resulting β-galactosidase activity provides a measure of stem cell self-renewal.
To test this hypothesis, D027 cells were cultured in the presence of the specific MEK inhibitor, PD098059. A sub-saturating concentration of LIF (5 U/ml) was used in these experiments to increase these sensitivity of the assay to changes in self-renewal signaling.
Self-renewal ES cells was assayed flowing treatment with 0.1-100 U/ml LIF either in the presence of 25 μM PD098059 or vehicle (02% DMSO).

| Molecule | concentration at which G-CSF dependent phosphorylation of ERK1 and ERK2 was effectively blocked (ERK1 and ERK2) [µM] | concentration range over which G-CSF dependent phosphorylation of ERK1 and ERK2 was progressively reduced (ERK1 and ERK2) [µM] | contribution of treated ES cells to chimaeras (β-galactosidase staining of mid-gestation embryos) (ZIN40 ES cells) | representation of undifferentiated β-galactosidase positive cells (IOUD2 ES cells; 0, 25, 50, 75 or 100 μm, aggregates 6 days, no inhibitor as control) | concentration at which the great majority of cells were undifferentiated (IOUD2 ES cells; aggregates maintained 6 days) [µM] | effect on dose response of ES cells to LIF (β-galactosidase activity) (D027 ES cells; 25 μM PD098059 versus vehicle, 0.1-100 U/ml LIF) | effect on ES cell self-renewal compared with vehicle alone (D027 ES cells; 3-25 μM PD098059, sub-saturating LIF (5 U/ml)) | effect on differentiation of ES cells in the absence of LIF (D027 ES cells; absence of LIF) | concentration at which maximum level of self-renewal is achieved (D027 ES cells; sub-saturating LIF (5 U/ml), dose dependent increase) [µM] | G-CSF concentration at which self-renewal reaches a plateau [1] [ng/mL] | G-CSF concentration at which maximal self-renewal response was achieved [2] [pg/mL] |
| --- | --- | --- | --- | --- | --- | --- | --- | --- | --- | --- | --- |
| COc1cccc(-c2cc(=O)c3ccccc3o2)c1N [PD098059] | 25 | 3 to 12 | contributed to chimaeras | increased in a dose dependent fashion | 75 to 100 | increased the level of β-galactosidase activity at all concentrations of LIF | did not inhibit self-renewal | did not block the differentiation of ES cells | 12 to 25 | – | – |
| B1 | – | – | – | – | – | – | – | – | – | 3 to 30 | 30 |
